# Laboratory results from patent publication CN103739655A, “28-O-β-D-葡萄糖基化远志皂苷、其制备方法及用途” (Individual, priority 2013, dated 2014).
# Key:
# Format in all cases: in vivo
# [1] = system: xylene-induced mouse ear swelling (二甲苯所致小鼠耳肿胀模型); experiment: xylene-induced ear swelling model in mice; details: intragastric
# [2] = system: carrageenan-induced rat paw swelling (角叉菜胶致大鼠足肿胀模型); experiment: carrageenan-induced paw swelling model in rats; details: intragastric; for 1 h swelling degree / 3 h swelling degree / 5 h swelling degree / 7 h swelling degree: once daily for 3 days; for 1 h swelling degree: 1 h after carrageenan, control 0.41±0.12; for 3 h swelling degree: 3 h after carrageenan, control 0.83±0.13; for 5 h swelling degree: 5 h after carrageenan, control 0.70±0.12; for 7 h swelling degree: 7 h after carrageenan, control 0.63±0.11
# rat AA model (大鼠AA模型) = experiment: rat AA model (FCA-induced primary inflammation); details: for 6 h swelling degree / 12 h swelling degree / 18 h swelling degree / 24 h swelling degree: intragastric from 3 days before FCA; for 6 h swelling degree: 6 h after FCA, control 0.49±0.06; for 12 h swelling degree: 12 h after FCA, control 0.54±0.07; for 18 h swelling degree: 18 h after FCA, control 0.64±0.07; for 24 h swelling degree: 24 h after FCA, control 0.50±0.06
# [3] = 25, 50, 100 mg/kg, intragastric
compound,measurement,setting,value
28-O-β-D-葡萄糖基化远志皂苷,inhibition rate,"[1]; 25 mg/kg (low dose), once daily for 3 days, ear swelling vs control, P<0.05",6.5%
same,inhibition rate,"[1]; 50 mg/kg (medium dose), once daily for 3 days, ear swelling vs control, P<0.01",39.1%
same,inhibition rate,"[1]; 100 mg/kg (high dose), once daily for 3 days, ear swelling vs control, P<0.01",48.4%
same,inhibition of xylene-induced acute inflammation of mouse auricle,"[1]; 25, 50, 100 mg/kg",能抑制
same,1 h swelling degree,[2]; 25 mg/kg (low dose),0.33 ± 0.05 mL
same,3 h swelling degree,[2]; 25 mg/kg (low dose),0.64 ± 0.16 mL
same,5 h swelling degree,[2]; 25 mg/kg (low dose),0.48 ± 0.13 mL
same,7 h swelling degree,[2]; 25 mg/kg (low dose),0.33 ± 0.07 mL
same,1 h swelling degree,[2]; 50 mg/kg (medium dose),0.17 ± 0.05 mL
same,3 h swelling degree,[2]; 50 mg/kg (medium dose),0.45 ± 0.12 mL
same,5 h swelling degree,[2]; 50 mg/kg (medium dose),0.39 ± 0.07 mL
same,7 h swelling degree,[2]; 50 mg/kg (medium dose),0.19 ± 0.05 mL
same,1 h swelling degree,[2]; 100 mg/kg (high dose),0.11 ± 0.05 mL
same,3 h swelling degree,[2]; 100 mg/kg (high dose),0.37 ± 0.13 mL
same,5 h swelling degree,[2]; 100 mg/kg (high dose),0.31 ± 0.08 mL
same,7 h swelling degree,[2]; 100 mg/kg (high dose),0.16 ± 0.09 mL
same,concentration dependence of inhibition of rat paw swelling,"[2]; 25, 50, 100 mg/kg",具有一定的浓度依赖性
same,inhibition of carrageenan-induced rat paw swelling,"[2]; 25, 50, 100 mg/kg",有抑制作用
same,6 h swelling degree,rat AA model (大鼠AA模型); 25 mg/kg (low dose),0.45 ± 0.05 mL
same,12 h swelling degree,rat AA model (大鼠AA模型); 25 mg/kg (low dose),0.51 ± 0.16 mL
same,18 h swelling degree,rat AA model (大鼠AA模型); 25 mg/kg (low dose),0.61 ± 0.13 mL
same,24 h swelling degree,rat AA model (大鼠AA模型); 25 mg/kg (low dose),0.46 ± 0.15 mL
same,6 h swelling degree,rat AA model (大鼠AA模型); 50 mg/kg (medium dose),0.28 ± 0.05 mL
same,12 h swelling degree,rat AA model (大鼠AA模型); 50 mg/kg (medium dose),0.30 ± 0.08 mL
same,18 h swelling degree,rat AA model (大鼠AA模型); 50 mg/kg (medium dose),0.33 ± 0.06 mL
same,24 h swelling degree,rat AA model (大鼠AA模型); 50 mg/kg (medium dose),0.27 ± 0.07 mL
same,6 h swelling degree,rat AA model (大鼠AA模型); 100 mg/kg (high dose),0.15 ± 0.06 mL
same,12 h swelling degree,rat AA model (大鼠AA模型); 100 mg/kg (high dose),0.19 ± 0.08 mL
same,18 h swelling degree,rat AA model (大鼠AA模型); 100 mg/kg (high dose),0.30 ± 0.07 mL
same,24 h swelling degree,rat AA model (大鼠AA模型); 100 mg/kg (high dose),0.25 ± 0.06 mL
same,concentration dependence of inhibition of primary inflammation in AA rats,rat AA model (大鼠AA模型); [3],具有一定的浓度依赖性
same,inhibition of FCA-induced primary inflammation in AA rats,rat AA model (大鼠AA模型); [3],有明显的抑制作用
"COc1ccc2cc([C@H](C)C(=O)O)ccc2c1 [萘普生, reference compound]",inhibition at 45 mg/kg,"[1]; Mus musculus, po, 72 h, 45 mg/kg, once daily for 3 days, ear swelling vs control, P<0.01, read-out: inhibition rate",45.7%
same,1 h swelling degree,[2]; 30 mg/kg,0.08 ± 0.07 mL
same,3 h swelling degree,[2]; 30 mg/kg,0.21 ± 0.05 mL
same,5 h swelling degree,[2]; 30 mg/kg,0.13 ± 0.08 mL
same,7 h swelling degree,[2]; 30 mg/kg,0.12 ± 0.07 mL
same,6 h swelling degree,rat AA model (大鼠AA模型); 30 mg/kg,0.16 ± 0.09 mL
same,12 h swelling degree,rat AA model (大鼠AA模型); 30 mg/kg,0.22 ± 0.07 mL
same,18 h swelling degree,rat AA model (大鼠AA模型); 30 mg/kg,0.29 ± 0.08 mL
same,24 h swelling degree,rat AA model (大鼠AA模型); 30 mg/kg,0.28 ± 0.06 mL
